From US8637505B2, “Cyclic inhibitors of 11beta-hydroxysteroid dehydrogenase 1” (Boehringer Ingelheim International GmbH, priority 2009, dated 2014) come the findings set out here.

The experiment addresses T1, 11β-HSD1 (Homo sapiens, UniProt P28845).
T1 construct: detecting cortisol generated from cortisterone by human liver microsomes; from tissue; host or cells: human liver microsomes
Kind of experiment: In vitro inhibition of 11β-HSD1, HTRF detection of cortisol generated by human liver microsomes. Conditions: for remaining activity at 0.1 µM: read-out: Average % control inhibition at 100 nM. The experiment is classed as biochemical. The protocol: The ratio of the two emission signals is then calculated (Em665*10000/Em615).
A general note: Time-resolved FRET reads energy transfer from a long-lived donor to a nearby acceptor.

Where [1] appears, read: at 100 nM, 100% indicates no inhibition, zero or below zero indicates complete inhibition, Biological Test Example C.
[2] abbreviates: at 100 nM, 100% indicates no inhibition, zero or below zero indicates complete inhibition, Biological Test Example D.
Setting [3] is: at 100 nM, 100% indicates no inhibition, zero or below zero indicates complete inhibition, Biological Test Example B.

Where two headings read alike, the source gives them in different places.

T1 sequence (P28845 whole entry): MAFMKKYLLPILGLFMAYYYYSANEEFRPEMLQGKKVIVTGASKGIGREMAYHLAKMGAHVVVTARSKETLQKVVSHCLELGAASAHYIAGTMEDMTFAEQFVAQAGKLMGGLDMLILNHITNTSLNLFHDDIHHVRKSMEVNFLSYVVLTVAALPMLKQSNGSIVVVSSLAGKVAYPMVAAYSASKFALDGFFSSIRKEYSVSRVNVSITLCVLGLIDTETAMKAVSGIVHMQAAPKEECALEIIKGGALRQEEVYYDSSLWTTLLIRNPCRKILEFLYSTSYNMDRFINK

With `Cc1nc(-c2ccc([C@H](C)N3CC[C@](CC(C)(C)O)(c4ccccc4)OC3=O)cc2)no1` [Example 6, (S)-6-(2-Hydroxy-2-methyl-propyl)-3-{(S)-1-[4-(5-methyl-[1,2,4]oxadiazol-3-yl)-phenyl]-ethyl}-6-phenyl-[1,3]oxazinan-2-one], the remaining activity at 0.1 µM is 40%.

Consider `C[C@@H](c1ccc(-c2ncon2)cc1)N1CC[C@](CC(C)(C)O)(c2ccccc2)OC1=O` [Example 7, (S)-6-(2-Hydroxy-2-methyl-propyl)-3-[(S)-1-(4-[1,2,4]oxadiazol-3-yl-phenyl)-ethyl]-6-phenyl-[1,3]oxazinan-2-one], for which the remaining activity at 0.1 µM was found to be 50%.

For the compound `C[C@@H](c1ccc(C(N)=O)cc1)N1CC[C@](CC(C)(C)O)(c2ccccc2)OC1=O` [Example 8, 4-{(S)-1-[(S)-6-(2-Hydroxy-2-methyl-propyl)-2-oxo-6-phenyl-[1,3]oxazinan-3-yl]-ethyl}-benzamide], the remaining activity at 0.1 µM came to 92%.

For `Cc1nnc(-c2ccc([C@H](C)N3CC[C@](CC(C)(C)O)(c4ccccc4)OC3=O)cc2)n1C` [Example 2, 3-{(S)-1-[4-(4,5-Dimethyl-4H-[1,2,4]triazol-3-yl)-phenyl]-ethyl}-(S)-6-(2-hydroxy-2-methyl-propyl)-6-phenyl-[1,3]oxazinan-2-one], the remaining activity at 0.1 µM came out at 95%.

As for `Cc1nnc(-c2ccc([C@H](C)N3CC[C@](CC(C)(C)O)(c4ccccc4)OC3=O)cc2)o1` [Example 3, (S)-6-(2-hydroxy-2-methyl-propyl)-3-{(S)-1-[4-(5-methyl-[1,3,4]oxadiazol-2-yl)-phenyl]-ethyl}-6-phenyl-[1,3]oxazinan-2-one], the remaining activity at 0.1 µM stood at 38%.

Take `C[C@@H](c1ccc(-c2nc3c(=O)n(C)c(=O)n(C)c3n2C)cc1)N1CC[C@](CC(C)(C)O)(c2ccccc2)OC1=O` [Example 12, 8-(4-{(S)-1-[(S)-6-(2-Hydroxy-2-methyl-propyl)-2-oxo-6-phenyl-[1,3]oxazinan-3-yl]-ethyl}-phenyl)-1,3,9-trimethyl-3,9-dihydro-purine-2,6-dione]: the remaining activity at 0.1 µM was determined as 98%.

As to `C[C@@H](c1ccc(-c2nnc(C(F)(F)F)s2)cc1)N1CC[C@](CC(C)(C)O)(c2ccccc2)OC1=O` [Example C2, (S)-6-(2-Hydroxy-2-methyl-propyl)-6-phenyl-3-{(S)-1-[4-(5-trifluoromethyl-[1,3,4]thiadiazol-2-yl)-phenyl]-ethyl}-[1,3]oxazinan-2-one], the remaining activity at 0.1 µM under setting [1] was 60%.

Turning to `C[C@@H](c1ccc(C2CCOC2)cc1)N1CC[C@](CC(C)(C)O)(c2ccccc2)OC1=O` (stereo partly drawn) [Example C4, (S)-6-(2-Hydroxy-2-methyl-propyl)-6-phenyl-3-{(S)-1-[4-(tetrahydro-furan-3-yl)-phenyl]-ethyl}-[1,3]oxazinan-2-one], the remaining activity at 0.1 µM under setting [1] came to 30%.

Take `C[C@@H](c1ccc(-c2nnco2)cc1)N1CC[C@](CC(C)(C)O)(c2ccccc2)OC1=O` [Example 5, (S)-6-(2-Hydroxy-2-methyl-propyl)-3-[(S)-1-(4-[1,3,4]oxadiazol-2-yl-phenyl)-ethyl]-6-phenyl-[1,3]oxazinan-2-one]: the remaining activity at 0.1 µM worked out at 48%.

With `C[C@@H](c1ccc(-c2ccsc2)cc1)N1CC[C@](CC(C)(C)O)(c2ccccc2)OC1=O` [Example 11, (S)-6-(2-Hydroxy-2-methyl-propyl)-6-phenyl-3-[(S)-1-(4-thiophen-3-yl-phenyl)-ethyl]-[1,3]oxazinan-2-one], the remaining activity at 0.1 µM came to 13%.

Consider `Cc1noc(C)c1-c1ccc([C@H](C)N2CC[C@](CC(C)(C)O)(c3ccccc3)OC2=O)cc1` [Example 10, 3-{(S)-1-[4-(3,5-Dimethyl-isoxazol-4-yl)-phenyl]-ethyl}-(S)-6-(2-hydroxy-2-methyl-propyl)-6-phenyl-[1,3]oxazinan-2-one], for which the remaining activity at 0.1 µM came out at 20%.

In the case of `C[C@@H](c1ccc(-c2ccc(OCC(C)(C)O)cc2)cc1)N1CC[C@](CC(C)(C)O)(c2ccccc2)OC1=O` [Example D7, 3-{(S)-1-[4′-(2-Hydroxy-2-methyl-propoxy)-biphenyl-4-yl]-ethyl}-(S)-6-(2-hydroxy-2-methyl-propyl)-6-phenyl-[1,3]oxazinan-2-one], under setting [2], the remaining activity at 0.1 µM is 3%.

“(S)-6-(2-Hydroxy-2-methyl-propyl)-6-phenyl-3-{(S)-1-[4′-(alkoxy)-biphenyl-4-yl]-ethyl}-[1,3]oxazinan-2-one [Example B1]”: the “Average % control inhibition at 100 nM” value under setting [3] is reported as 0%.

Regarding “(S)-6-(2-Hydroxy-2-methyl-propyl)-6-phenyl-3-((S)-1-{4-[2-(alkoxy)-pyridin-4-yl]-phenyl}-ethyl)-[1,3]oxazinan-2-one [Example E1]”, the “Average % control inhibition at 100 nM” value (at 100 nM, 100% indicates no inhibition, zero or below zero indicates complete inhibition, Biological Test Example E) came out at 25%.

Take `C[C@@H](c1ccc(-c2ccoc2)cc1)N1CC[C@](CC(C)(C)O)(c2ccccc2)OC1=O` [Example 20, 3-[(S)-1-(4-Furan-3-yl-phenyl)-ethyl]-(S)-6-(2-hydroxy-2-methyl-propyl)-6-phenyl-[1,3]oxazinan-2-one]: the remaining activity at 0.1 µM amounted to 10%.

With `COC(=O)COc1ccc(-c2ccc([C@H](C)N3CC[C@](CC(C)(C)O)(c4ccccc4)OC3=O)cc2)cc1` [Example B2, (4′-{(S)-1-[(S)-6-(2-Hydroxy-2-methyl-propyl)-2-oxo-6-phenyl-[1,3]oxazinan-3-yl]-ethyl}-biphenyl-4-yloxy)-acetic acid methyl ester], under setting [3], the remaining activity at 0.1 µM amounted to 18%.

Consider `C[C@@H](c1ccc(-c2ccc(OCCO)cc2)cc1)N1CC[C@](CC(C)(C)O)(c2ccccc2)OC1=O` [Example D6, 3-{(S)-1-[4′-(2-Hydroxy-ethoxy)-biphenyl-4-yl]-ethyl}-(S)-6-(2-hydroxy-2-methyl-propyl)-6-phenyl-[1,3]oxazinan-2-one], for which the remaining activity at 0.1 µM under setting [2] was -12%.

For `Cc1nnc(-c2ccc([C@H](C)N3CC[C@](CC(C)C)(c4ccccc4)OC3=O)cc2)o1` (stereo in doubt) [Example 1, (S)-6-Isobutyl-3-{1-[4-(5-methyl-[1,3,4]oxadiazol-2-yl)-phenyl]-ethyl}-6-phenyl-[1,3]oxazinan-2-one], the remaining activity at 0.1 µM was 2%.

With `C[C@@H](c1ccc(-c2ccco2)cc1)N1CC[C@](CC(C)(C)O)(c2ccccc2)OC1=O` [Example 13, 3-[(S)-1-(4-Furan-2-yl-phenyl)-ethyl]-(S)-6-(2-hydroxy-2-methyl-propyl)-6-phenyl-[1,3]oxazinan-2-one], the remaining activity at 0.1 µM is -2%.
